Data on 2 molecules can be found in PMC7700029, “Repurposing Napabucasin as an Antimicrobial Agent against Oral Streptococcal Biofilms” (BioMed Research International, 2020).

The subject of one assay is S. gordonii biofilm. The assay is described as follows: Biofilm formation inhibition, crystal violet (MBIC). The class given is cell-based, Streptococcus gordonii. The following applies: 24 h, 90% or more inhibition of biofilm formation. The method, then:
The minimum biofilm inhibition concentration (MBIC) was used to evaluate the effect of NAP on biofilm formation. S. mutans, S. gordonii, or S. sanguinis (1 × 10^7CFU/mL, 10 μL/well) were grown in BHIS with twofold serial dilution of NAP (200 μL/well) ranging from 0.12 to 125 μg/mL at 37°C for 24 h. A parallel study was also performed with BHIS as a negative control. Then, the supernatants from the wells were decanted, and the adherent biofilm was washed three times with PBS to remove the planktonic cells. Fixed with methanol for 15 min and air-dried at room temperature, the biofilm was stained with 0.1% (wt/vol) crystal violet (Sigma) for 5 min, rinsed with deionized water until blank control wells were colorless, and added 200 μL of 95% ethanol to each crystal violet-stained well. Subsequently, the plate was rocked 30 min at room temperature, and the absorbance at 595 nm was recorded. The percentage of inhibition was calculated using the equation: (A595ofnegativecontrol − A595ofthetestgroup)/A595ofnegativecontrol × 100%.

Assay [1] deals with human gingival epithelial cells (HGE). The assay is described as follows: In vitro cytotoxicity/viability, CCK-8. The note with it: Epithelial cell, 5 min, 5 min exposure. It is filed as cell-based. The method, then:
(§1) Cell viability was evaluated by using the Cell Counting Kit-8 (CCK-8, Dojindo, Kumamoto, Japan) assay as described by Park et al.. Test cells were human oral keratinocytes (HOK), human gingival epithelia (HGE), and macrophage RAW264.7 (RAW264.7). Cells were plated in 96-well plates at 10,000 cells/well in minimum essential medium with the Dulbecco's modified Eagle's medium (DMEM) supplemented with 10% fetal bovine serum and 1% antibiotic-antimycotic. The cells were grown in a humidified environment with 5% CO2 at 37°C for 24 hours. Considering the short exposure duration of oral cells to mouth rinses, cells were treated with medium containing NAP (0.12 to 62.5 μg/mL) and positive control CHX for 5 min [27–29]. Then, the cells were washed with PBS twice and were added with the fresh medium (200 μL/well). Each well was added with 10 μL of CCK-8, and after incubation in the CO2 incubator for 1 h to 1.5 h, absorbance was measured at the wavelength of 450 nm. The cell viability was calculated according to the following formula: (%) = (A450oftestgroup − A450ofblankcontrol)/(A450ofnegativecontrol − A450ofblankcontrol) × 100%.

Assay [2] concerns human oral keratinocytes (HOK). The experiment in a line: In vitro cytotoxicity/viability, CCK-8. It is filed as cell-based. The note with it: Keratinocyte, 5 min, 5 min exposure, read-out: IC50 (cell viability). The method, then:
as §1

The test system of a further assay is macrophage RAW264.7. The experiment in a line: In vitro cytotoxicity/viability, CCK-8. It is filed as cell-based. The note with it: Mus musculus, 5 min, RAW264.7, 5 min exposure, read-out: IC50 (cell viability). Here is the method:
as §1

For assay [3], the system named is oral streptococcal multispecies biofilms. The assay is described as follows: Multispecies biofilm imaging (dead/live, EPS staining, CLSM). The class given is cell-based, S. mutans, S. gordonii, S. sanguinis. The following applies: 5 min three times per day for 3 days; for structural integrity of multispecies biofilms: 0.2% CHX. The method, then: The multispecies biofilms were cultivated in accordance with a previous study. Overnight cultures of S. mutans, S. gordonii, and S. sanguinis were simultaneously inoculated (inoculum ratio = 1 : 1 : 1). The chemotaxis chamber μ-Slide, which has extremely low values of birefringence and autofluorescence, was used for bacterial culture and confocal microscopy. Bacterial suspensions (1 × 10^5CFU/mL for each strain) were mixed in 300 μL BHI containing 1% sucrose (BHIS) in the μ-Slide (8 wells, 80826, Ibidi) at 37°C for 24 h. Then, biofilms were exposed to PBS, 62.5 μg/mL NAP, and 0.2% CHX for 3 days (5 min, three times per day). This short-term repeated treatment was to simulate the daily exposure to the mouth rinses.
For dead/live imaging, biofilms were stained with fluorescent LIVE/DEAD BacLight Bacterial Viability stain (Molecular Probes, Invitrogen) containing SYTO 9 and propidium iodide according to the manufacturer's instructions. The labeled biofilms were imaged with a DMIRE2 confocal laser scanning microscope (Leica, Wetzlar, Germany) equipped with a 60x oil immersion objective lens.
For extracellular polysaccharide (EPS) staining, the bacterial cell and the EPS were stained with SYTO 9 (Molecular Probes) and Alexa Fluor 647-labeled dextran conjugate (Molecular Probes) as described previously. The biofilms were captured with a Leica DMIRE2 confocal laser scanning microscope as in live/dead imaging.
All three-dimensional reconstructions of the biofilms were performed with Imaris 7.0.0 (Bitplane, Zürich, Switzerland). The quantification of the dead/live and EPS/bacteria volume ratio was, respectively, performed with Image-Pro Plus (Media Cybernetics, Silver Spring, MD, USA) and COMSTAT (http://www.image-analysis.dk).

For assay [4], the system named is multispecies biofilms on human enamel slabs. The experiment in a line: Biofilm-induced demineralization of human enamel slabs, transverse microradiography. The class given is cell-based, S. mutans, S. gordonii, S. sanguinis. The following applies: 62.5 μg/mL NAP, 0.2% CHX, 5 min three times per day for 5 days; compared to negative control. From the text: Human teeth free of white spots, cracks, and other defects that had been extracted for periodontal or impacted reasons were collected under a protocol approved by the Ethics Committee of West China Hospital of Stomatology, Sichuan University (WCHSIRB-D-2018-107). Crowns were separated from roots and cut into four sections measuring 5mm × 5mm × 2mm by using a diamond-coated saw (Struers Minitom; Struers, Copenhagen, Denmark) under continuous water cooling. The enamel slabs were embedded in polymethylmethacrylate and painted with two layers of acid-resistant nail varnish, leaving a 4mm × 4mm window of the exposed enamel surface. Then, these surfaces were polished progressively with waterproof silicon carbide abrasive papers (800–4000 grit; Struers, Copenhagen, Denmark) and were ultrasonically cleaned in a deionized water for 5 min to remove the residual abrasives. All slabs were sterilized with ethylene oxide. The 30 specimens were randomly divided into 3 groups: PBS, 62.5 μg/mL NAP, and 0.2% CHX. Enamel slabs obtained from the same tooth were evenly distributed to each test group.
Overnight cultures of S. mutans, S. gordonii, and S. sanguinis (1 × 10^7CFU/mL) were simultaneously inoculated on enamel slabs in a 24-well cell culture plate with BHIS at 37°C. Slabs with biofilms were then exposed to PBS, 62.5 μg/mL NAP, and 0.2% CHX for 5 days (5 min, three times per day). The 5-day demineralization duration was in accordance with previous studies. All specimens were then washed in PBS and refreshed with BHIS after every exposure. After 5 days of treatment, specimens were taken out and rinsed with PBS to remove the biofilms. Then, specimens were cut again and polished with a hand plane—parallel from both sides with waterproof silicon carbide abrasive papers (800–4000 grit; Struers, Copenhagen, Denmark) to thickness ranging around […]. X-ray films of experimental lesions were acquired with an X-ray generator (Softex, Japan) equipped with a microradiography camera and then were further examined using a Zeiss AXIO Imager A2 microscope (Carl Zeiss, Germany). Quantitative data was acquired by a calibrated analysis system TMR2006 (Inspektor Research Systems BV, Netherlands). Data are obtained as the mean of 10 separate samples.

Where [5] appears, read: 62.5 μg/mL NAP compared to 0.2% CHX.

Converted amounts (≈) assume the structure as drawn.

As for `[H]/N=C(\N/C(=N/[H])NCCCCCCNC(=N)NC(=N)Nc1ccc(Cl)cc1)Nc1ccc(Cl)cc1` [CHX, Chlorhexidine], the MBIC in the assay with S. gordonii biofilm amounted to 3.91 µg/mL. In addition, the IC50 (in assay [1]; in assay [2]; with macrophage RAW264.7) was 31.2 to 62.5 µg/mL (≈ 61.8 to 124 µM) in each case. In addition, the “structural integrity of multispecies biofilms” value in assay [3] (62.5 μg/mL NAP) is recorded as “disrupted the structural integrity of multispecies biofilms significantly”. Further, the “depth of biofilm-induced lesion” value in assay [4] was “significantly reduced”. Further, the “mineral loss of enamel” value in assay [4] is recorded as “significantly reduced”.
Molecule `CC(=O)c1cc2c(o1)C(=O)c1ccccc1C2=O` [NAP, 2-acetylfuro-1,4-naphathoquinone] had an MBIC in the assay with S. gordonii biofilm of 0.49 µg/mL. Besides, the IC50 (commonly the midpoint of a concentration-inhibition curve) in assay [1] was more than 62.5 µg/mL. For the same molecule, the IC50 in assay [2] is more than 62.5 µg/mL. Further, the IC50 in the assay on macrophage RAW264.7 is more than 62.5 µg/mL. In assay [3] (setting [5]), the EPS/bacteria ratio entry is on record as “equivalent” and the dead/live cell ratio result is recorded as “equivalent dead/live cell ratio”. The “bacteria within the biofilms (volume)” value in assay [3] (62.5 μg/mL NAP vs 0.2% CHX) is “further reduced the bacteria within the oral streptococcal biofilms as compared to CHX”. For the same molecule, in assay [3] (62.5 μg/mL NAP), the “structural integrity of multispecies biofilms” value is on record as “disrupted the structural integrity of multispecies biofilms significantly” and the “EPS production in the biofilm” value is recorded as “significantly inhibit EPS production”. Besides, in assay [4], the “depth of biofilm-induced lesion” value is “significantly reduced” and the “mineral loss of enamel” value is reported as “significantly reduced”.
